Among the data in ChEMBL document CHEMBL3507680, “University of Dundee, Gates Library screen for HepG2 cell viability” are cytotoxicity values, retold here.

The nature of the series: Human HepG2 cell viability assay in 384 well format. Details: dose 125 nL, time 70.5 hour; cytotoxicity at 70.5 h: concentration not given beside the values. As to conditions: HepG2 cells, read-out: Inhibition. Format: toxicity, cell-based.

SMILES strings stand for the structures.

Regarding `COCC(=O)N1C[C@@H](c2cc(O)nc(C)n2)[C@H](c2ccccc2F)C1`, the cytotoxicity at 70.5 h was found to be 13%.

For the compound `Cc1cc2c(=O)n(CC(=O)N3CCn4cccc4C3C(C)C)cnc2s1` (stereo not given), the cytotoxicity at 70.5 h is -6.1%.

`CCC1c2ccc(C)n2CCN1C(=O)Cn1cnc2sc(C)cc2c1=O` (stereo not given): the cytotoxicity at 70.5 h was -5.17%.

Take `CCC(CN1CCCC1)NC(=O)C1(c2ccc(F)cc2)CC1` (stereo not given): the cytotoxicity at 70.5 h is -7.41%.

As to `O=C(CCN1CCOCC1)NC(Cc1ccsc1)c1nccs1` (stereo not given), the cytotoxicity at 70.5 h is -4.65%.

For `Cc1cccn2c(NC(C)(C)C)c(C3CCN(C(=O)C4CC4)CC3)nc12`, the cytotoxicity at 70.5 h was -6.96%.

As to `Cc1csc2c(C3CCN(CCCOc4ccccc4)CC3)nc(C)n12`, the cytotoxicity at 70.5 h was -0.478%.

Take `CC(C)C(=O)NCCc1cc2nc(-c3ccncc3)ccn2n1`: the cytotoxicity at 70.5 h was -6.71%.

Consider `O=C(NCCc1cc2nc(-c3ccncc3)ccn2n1)C1CC1`, for which the cytotoxicity at 70.5 h is -6.41%.

With `CC(C)NC(=O)[C@@H]1CN(C)C[C@]12COc1ccc(F)cc1C2=O`, the cytotoxicity at 70.5 h was -5.13%.

Turning to `CN(C)c1cc(C2CCCN2)ccn1` (stereo not given), the cytotoxicity at 70.5 h stood at 0.143%.

For the compound `Cc1noc(C)c1-c1cccc(C2CN(S(=O)(=O)N(C)C)CCO2)n1` (stereo not given), the cytotoxicity at 70.5 h is -3.96%.

Consider `COCCn1c(=O)n(C)c(=O)c2ccc(C3CCN(C(C)=O)CC3)nc21`, for which the cytotoxicity at 70.5 h was -1.06%.

In the case of `Cn1ccnc1C1(O)CCCN(Cc2ccncc2)CC1` (stereo not given), the cytotoxicity at 70.5 h was -2.25%.

On to `Cc1ccccc1C(=O)N1CC[C@H](O)[C@@H](N2CCOCC2)CC1`, for which the cytotoxicity at 70.5 h is -4.48%.

`O=C(O)CCCN1C[C@@H](c2ccccc2F)[C@@]2(CCCCC(=O)N2)C1`: the cytotoxicity at 70.5 h was -2.59%.

With `CCC(O)Cn1nc(-c2ccc(C(=O)O)cc2)cc1-c1cccc(F)c1` (stereo not given), the cytotoxicity at 70.5 h came out at 20.1%.

`Clc1ccc(OCCc2cc(C3CCN(c4ncccn4)C3)n[nH]2)cc1` (stereo not given): the cytotoxicity at 70.5 h worked out at 0.0716%.

For `NC(=O)CN1CCCC(c2ccnc(Nc3ncccn3)c2)C1` (stereo not given), the cytotoxicity at 70.5 h was 18.8%.

Take `COCCNc1ccc(CC2CCCN(C3CCOCC3)C2)nn1` (stereo not given): the cytotoxicity at 70.5 h is -4.94%.

Consider `O=C(c1cccnc1)N1CCc2[nH]nc(Nc3ccccc3)c2C1`, for which the cytotoxicity at 70.5 h is -6.1%.

As for `CC(=O)N1CCCC(c2ccnc(Nc3cnccn3)c2)C1` (stereo not given), the cytotoxicity at 70.5 h is -1.19%.

With `O=C(c1cncs1)N1CCc2[nH]nc(Nc3ccccc3)c2C1`, the cytotoxicity at 70.5 h was -3.16%.

With `CC(C)N1CCC(c2cnc(-c3cncnc3)cn2)CC1`, the cytotoxicity at 70.5 h amounted to 21.3%.

For `Cc1noc(C)c1CC(=O)N1CC[C@@](C)(O)[C@H](Oc2ccccc2)C1`, the cytotoxicity at 70.5 h is -2.99%.

With `CC(=O)NCC(=O)N1CCOCC(Cc2ccc3c(ccn3C)c2)C1` (stereo not given), the cytotoxicity at 70.5 h was -8.14%.

`CNC(=O)C1(Cc2cc(C(C)C)no2)CCN(Cc2ccccn2)C1` (stereo not given): the cytotoxicity at 70.5 h is -0.0563%.

In the case of `COc1cc(CCC(=O)N2CCC(c3cncc(C)n3)CC2)on1`, the cytotoxicity at 70.5 h is -3.99%.

In the case of `COCC(=O)N1C[C@@H](O)[C@H](N2CCN(c3ccccc3)CC2)C1`, the cytotoxicity at 70.5 h is -0.565%.

Consider `c1ccc(N2CCC(c3ccncc3)CC2)cc1`, for which the cytotoxicity at 70.5 h was 5.91%.

On to `c1cncc(N2CCC(c3ccncc3)CC2)c1`, for which the cytotoxicity at 70.5 h amounted to 3.31%.

Regarding `CN(C)C(=O)c1cn[nH]c1C1(C)CCN(c2ncccn2)CC1`, the cytotoxicity at 70.5 h is 2.96%.

Consider `CN1CCC(C(=O)N2CCC(c3ccc4c(N)n[nH]c4n3)CC2)CC1`, for which the cytotoxicity at 70.5 h was -0.601%.

Regarding `O=C(Cc1ccccc1)N1CCC(c2nnc(-c3ccccn3)o2)CC1`, the cytotoxicity at 70.5 h came to 21.6%.

As for `CC1(C(N)=O)CN(CC2CCOCC2)CCO1` (stereo not given), the cytotoxicity at 70.5 h stood at 53.2%.

Take `Cn1nc(Cl)cc1C(=O)N1CCC(C(=O)c2nc3ccccc3s2)CC1`: the cytotoxicity at 70.5 h stood at 10.5%.

Consider `COc1cccc([C@@]2(O)CC[C@@H]3CN(C(=O)c4cn(C)nc4C)C[C@@H]32)c1`, for which the cytotoxicity at 70.5 h worked out at 1.27%.

As to `Cc1nc2cc(-c3nccn3C)nn2c(N2CCCC(CO)C2)c1C` (stereo not given), the cytotoxicity at 70.5 h came out at 2.86%.

Take `CC(C)N1CCCC1c1csc(N)n1` (stereo not given): the cytotoxicity at 70.5 h was -1.44%.

In the case of `COc1cc(C(=O)NCC2(N(C)C)CCN(C)CC2)c2ccccc2n1`, the cytotoxicity at 70.5 h amounted to 0.627%.

With `Cc1ccc(OCCN2CCC(c3nc(C)n4c(C)csc34)CC2)cc1`, the cytotoxicity at 70.5 h came out at 3.59%.

Take `COc1ccc(CN(C)Cc2ccnc(C3CCCO3)n2)cc1` (stereo not given): the cytotoxicity at 70.5 h is -2.06%.

Regarding `CN1CCOC(C)(C(=O)Nc2nccs2)C1` (stereo not given), the cytotoxicity at 70.5 h is 40.2%.

Turning to `O=C1N[C@H]2OCCC[C@H]2[C@H](c2ccccc2C(=O)O)N1`, the cytotoxicity at 70.5 h amounted to 13.9%.

Regarding `Cn1ccnc1CNC(=O)CCc1cccc(F)c1`, the cytotoxicity at 70.5 h was -9.01%.

Consider `CCOc1ccc(CN2CCCC(c3cc4ncccc4[nH]3)C2)cc1` (stereo not given), for which the cytotoxicity at 70.5 h is 6.95%.

Consider `Fc1ccc(CN2CCCC(c3cc4ncccc4[nH]3)C2)cc1` (stereo not given), for which the cytotoxicity at 70.5 h is 3.04%.

`Cc1c[nH]nc1C1CN(c2cnccn2)CCO1` (stereo not given): the cytotoxicity at 70.5 h was -4.52%.

As for `Cc1cn[nH]c1C1CCCCN1C(=O)CCc1c(C)n[nH]c1C` (stereo not given), the cytotoxicity at 70.5 h was -2.55%.

Take `CCc1noc(C)c1C(=O)N1CCC(c2[nH]ncc2S(C)(=O)=O)C1` (stereo not given): the cytotoxicity at 70.5 h is -4.87%.

`CN(CCC(=O)N1CCCC(Cc2cccnc2)C1)Cc1cccnc1` (stereo not given): the cytotoxicity at 70.5 h was -6.27%.

On to `Cc1nc(-c2ccc(C(=O)O)cc2)cc(C2CCN(C(C)C)CC2)n1`, for which the cytotoxicity at 70.5 h stood at 12.2%.

In the case of `COc1cccc(CN2CC[C@H]3[C@@H](C2)[C@H](c2ccsc2)CN3C(C)=O)c1`, the cytotoxicity at 70.5 h is 28.6%.

Take `Cc1ncc(C(=O)N2CCCC(Cc3nccs3)C2)cn1` (stereo not given): the cytotoxicity at 70.5 h is -8.16%.

For the compound `Cn1cc(C(=O)N2CCCC(Cc3cnccn3)C2)cn1` (stereo not given), the cytotoxicity at 70.5 h is -15.6%.

For `CCCn1cc(C(=O)N2CCCC(Cc3nccs3)C2)cn1` (stereo not given), the cytotoxicity at 70.5 h is -4.77%.

On to `CN(C)C(=O)CN1CCCCC1c1nc(N)ncc1-c1cccc(F)c1` (stereo not given), for which the cytotoxicity at 70.5 h was 34.4%.

Take `Cc1ncc2c(n1)C1(CCN(C(=O)C3CC3)CC1)OCC2`: the cytotoxicity at 70.5 h is -9.75%.

Regarding `Fc1ccccc1Cn1c(C2CCNCC2)cc2cccnc21`, the cytotoxicity at 70.5 h is -4.77%.

Take `COc1cccc(Cn2c(C3CCNCC3)cc3cccnc32)c1`: the cytotoxicity at 70.5 h was -1.55%.

On to `COc1ccccc1C1(NCc2c(C)nc3c(C)cccn23)CCCC1`, for which the cytotoxicity at 70.5 h was found to be 24.9%.

In the case of `CN(C)c1ccnc(C2CCCN2)n1` (stereo not given), the cytotoxicity at 70.5 h is -3.83%.

Regarding `CC(Cn1cncc1-c1cnn(C2CCCCC2)c1)N1CCCCC1` (stereo not given), the cytotoxicity at 70.5 h amounted to 25%.

Turning to `Fc1cccc(F)c1Cn1c(C2CCNCC2)cc2cccnc21`, the cytotoxicity at 70.5 h stood at 3.7%.

For the compound `COc1cccc(Nc2nc(C3CCNCC3)c3ccccn23)c1`, the cytotoxicity at 70.5 h is -2.27%.

For the compound `COc1cccc(CCC(=O)N2CCC[C@@H](N)[C@@H]2c2ccccc2F)c1`, the cytotoxicity at 70.5 h is -1.81%.

On to `COc1cccc([C@H]2CN(C(C)=O)[C@@H]3CCN(Cc4ccsc4)C[C@H]23)c1`, for which the cytotoxicity at 70.5 h was -4.18%.

Regarding `Cc1ccccc1-n1nc(C)c(CN(C)C(C)Cc2ccccn2)c1C` (stereo not given), the cytotoxicity at 70.5 h amounted to 0.642%.

Consider `COc1ccc(C2(NCc3c(C)nc4c(C)cccn34)CCCC2)cc1`, for which the cytotoxicity at 70.5 h was -5.54%.

On to `CCC(CN1CCN(C)CC1)NC(=O)C1(c2cccc(F)c2)CC1` (stereo not given), for which the cytotoxicity at 70.5 h is -4.87%.
